Results from patent publication US11072628B2, “Nucleoside analogues for the treatment of parasitic infections” (UNIVERSITEIT GENT, priority 2017, dated 2021).
Read-outs that look alike come from different tables or passages of the source.

Assays:
[1] = system: T. brucei Squib 427; assay: In vitro drug susceptibility, T. brucei Squib 427 (resazurin); assay type: cell-based, Trypanosoma brucei brucei
Procedure: (§1) All trypanosome strains were cultured in the standard HMI-9 medium supplemented with 10% fetal bovine serum (FBS) at 37° C. in a 5% CO2 atmosphere.

[2] = system: T. b. rhodesiense STIB-900; assay: In vitro drug susceptibility, T. b. rhodesiense STIB-900 (resazurin); assay type: cell-based, Trypanosoma brucei rhodesiense
Procedure: as §1

[3] = system: MRC-5 fibroblasts; assay: in vitro
Procedure: (§2) Cytotoxicity was assayed against MRC-5 fibroblasts. Results are depicted in Tables 4 and 5.

[4] = system: T. cruzi Tulahuen CL2 β galactosidase strain; assay: T. cruzi Tulahuen CL2 β galactosidase strain on MRC-5SV2 cells (CPRG); assay type: cell-based, Trypanosoma cruzi
Procedure: All cultures and assays were conducted at 37° C./5% CO2. […] The results were expressed as % reduction in parasite burdens compared to control wells from which an EC50 was calculated.

[5] = Cytotoxicity against MRC-5 fibroblasts; details: human, MRC-5 fibroblasts, MRC-5 EC50, Table 2; cytotoxicity
Procedure: as §2

[6] = Table 1, average of 2-4 independent determinations, read-out: T. brucei brucei EC50
[7] = Table 1, average of 2-4 independent determinations, read-out: T. brucei rhod. EC50
[8] = Table 2, average of 2-3 independent replicates
[9] = Table 4, average of 2-6 independent determinations, read-out: T.b. brucei EC50
[10] = Table 4, average of 2-6 independent determinations, read-out: T.b. rhod. EC50
[11] = Table 5, average of 2-4 independent replicates
[12] = Trypanosoma cruzi, TULAHUEN, MRC-5 SV2, Table 2, average of 2-3 independent replicates

Molecule | EC50 [1, 6] [µM] | EC50 [2, 7] [µM] | EC50 [3] [µM] | EC50 [4, 8] [µM] | EC50 [1, 9] [µM] | EC50 [2, 10] [µM] | EC50 [4, 11] [µM] | EC50 [4] [µM] | EC50 [5] [µM] | EC50 [4, 12] [µM] | melting point [°C]
Cc1cccc(-c2cn([C@@H]3O[C@H](CO)C[C@H]3O)c3ncnc(N)c23)c1 [FH10639, 4-amino-5-(3-methylphenyl)-N7-(3′-deoxy-β-D-ribofuranosyl)-pyrrolo[2,3-d]pyrimidine] | 30.5 | 11.2 | > 64 | 5.15 | – | – | – | – | – | – | –
Nc1ncnc2c1c(-c1ccccc1)cn2[C@@H]1O[C@H](CO)C[C@H]1O [FH8480, 4-amino-5-phenyl-N7-(3′-deoxy-β-D-ribofuranosyl)-pyrrolo[2,3-d]pyrimidine] | 7.9 | 1.2 | 61.8 | 2.57 | – | – | – | – | – | – | –
Nc1ncnc2c1c(Br)cn2[C@@H]1OC(CO)(CO)C[C@H]1O [FH9561, 4-amino-5-bromo-N7-(3′-deoxy-4′-hydroxymethyl-β-D-ribofuranosyl)-pyrrolo[2,3-d]pyrimidine] | 26.8 | 5.6 | > 64 | > 64 | – | – | – | – | – | – | –
Nc1ncnc2c1c(-c1ccccn1)cn2[C@@H]1O[C@H](CO)C[C@H]1O [FH8502, 4-amino-5-(pyrid-2-yl)-N7-(3′-deoxy-β-D-ribfuranosyl)-pyrrolo[2,3-d]pyrimidine] | 7.6 | 37.3 | 33.7 | 40.8 | – | – | – | – | – | – | –
Nc1ncnc2c1c(Br)cn2[C@H]1CC[C@@H](CO)O1 [FH10638, 4-amino-5-bromo-N7-(2′,3′-dideoxy-β-D-ribofuranosyl)-pyrrolo[2,3-d]pyrimidine] | 57.9 | 24.4 | 16.4 | 43.3 | – | – | – | – | – | – | –
Nc1ncnc2c1ccn2[C@@H]1O[C@H](COS(N)(=O)=O)C[C@H]1O [FH9608, 4-amino-N7-(3′-deoxy-5′-O-sulfamoyl-β-D-ribofuranosyl)-pyrrolo[2,3-d]pyrimidine] | 4.6 | 0.87 | 5.09 | 9.91 | – | – | – | – | – | – | –
Nc1ncnc2c1c(SC(F)(F)F)cn2[C@@H]1O[C@H](CO)C[C@H]1O [FH9605, 4-amino-5-trifluoromethylthio-N7-(3′-deoxy-β-D-ribofuranosyl)-pyrrolo[2,3-d]pyrimidine] | 27.2 | 21 | 18.6 | 26 | – | – | – | – | – | – | –
Nc1ncnc2c1c(-c1cccc(C(F)(F)F)c1)cn2[C@@H]1O[C@H](CO)C[C@H]1O [FH10640, 4-amino-5-(3-trifluoromethylphenyl)-N7-(3′-deoxy-β-D-ribofuranosyl)-pyrrolo[2,3-d]pyrimidine] | 8.6 | 1.77 | 49.6 | 11.2 | – | – | – | – | – | – | –
Nc1ncnc2c1c(-c1ccc3ccccc3c1)cn2[C@@H]1O[C@H](CO)C[C@H]1O [FH9575, 4-amino-5-(2-naftyl)-N7-(3′-deoxy-β-D-ribfuranosyl)-pyrrolo[2,3-d]pyrimidine] | 18.6 | 2 | 5 | 0.72 | – | – | – | – | – | – | –
Nc1ncnc2c1c(Cl)cn2[C@@H]1O[C@H](CO)[C@@H](O)[C@H]1O [FH3169] | – | – | 33.4 | – | 1.33 | 0.12 | 0.52 | – | – | – | –
CO[C@@H]1C[C@@H](CO)O[C@H]1n1cc(Br)c2c(N)ncnc21 [FH9616, 4-amino-5-bromo-N7-(2′-O-methyl-3′-deoxy-β-D-ribofuranosyl)-pyrrolo[2,3-d]pyrimidine] | 32.5 | 25.4 | > 64 | > 64 | – | – | – | – | – | – | –
OC[C@@H]1C[C@@H](O)[C@H](n2cc(Br)c3c(Cl)ccnc32)O1 [FH9540, 3-bromo-4-chloro-N1-(3′-deoxy-β-D-ribofuranosyl)-pyrrolo[2,3-b]pyridine] | 14.8 | 28.9 | 27.2 | – | – | – | – | 15 | – | – | –
CSC[C@@H]1C[C@@H](O)[C@H](n2cc(Br)c3c(N)ncnc32)O1 [FH9527, 4-amino-5-bromo-N7-(3′-deoxy-5′-thiomethyl-β-D-ribofuranosyl)-pyrrolo[2,3-d]pyrimidine] | 32.5 | 22.3 | 15.3 | 25 | – | – | – | – | – | – | –
Nc1ccnc2c1ccn2[C@@H]1O[C@H](CO)C[C@H]1O [FH9550, 4-amino-N1-(3′-deoxy-β-D-ribofuranosyl)-pyrrolo[2,3-b]pyridine] | > 64 | 30.8 | > 64 | – | – | – | – | > 64 | – | – | –
Nc1ncnc2c1c(-c1ccc(F)c(Cl)c1)cn2[C@@H]1O[C@H](CO)C[C@H]1O [FH10681, 4-amino-5-(3-chloro-4-fluorophenyl)-N7-(3′-deoxy-β-D-ribofuranosyl)-pyrrolo[2,3-d]pyrimidine] | – | – | – | – | – | – | – | – | 45.5 | 0.3 | 178
Nc1ncnc2c1c(-c1ccc(Cl)c(F)c1)cn2[C@@H]1O[C@H](CO)C[C@H]1O [FH10683, 4-amino-5-(3-fluoro-4-chlorophenyl)-N7-(3′-deoxy-β-D-ribofuranosyl)-pyrrolo[2,3-d]pyrimidine] | – | – | – | – | – | – | – | – | 18.6 | 0.07 | 206

Molecule | EC50 [1, 6] [µM] | EC50 [2, 7] [µM] | EC50 [3] [µM] | EC50 [4, 8] [µM] | EC50 [1, 9] [µM] | EC50 [2, 10] [µM] | EC50 [4, 11] [µM] | EC50 [4] [µM] | EC50 [5] [µM] | EC50 [4, 12] [µM] | melting point [°C]
Nc1ncnc2c1c(-c1ccc(F)cc1)cn2[C@@H]1O[C@H](CO)C[C@H]1O [FH10680, 4-amino-5-(4-fluorophenyl)-N7-(3′-deoxy-β-D-ribofuranosyl)-pyrrolo[2,3-d]pyrimidine] | – | – | – | – | – | – | – | – | > 64 | 0.64 | 186 to 187
CNc1ncnc2c1c(Br)cn2[C@@H]1O[C@H](CO)C[C@H]1O [FH8516, 4-methylamino-5-bromo-N7-(3′-deoxy-β-D-ribofuranosyl)-pyrrolo[2,3-d]pyrimidine] | 6.21 | 8.25 | > 64 | > 64 | – | – | – | – | – | – | –
Nc1ncnc2c1c(-c1ccc3ccccc3n1)cn2[C@@H]1O[C@H](CO)[C@@H](O)[C@H]1O [MS1017] | – | – | > 64 | – | 6.45 | 3.72 | 34.1 | – | – | – | –
Nc1ccnc2c1c(Br)cn2[C@@H]1O[C@H](CO)C[C@H]1O [FH9549, 3-bromo-4-amino-N1-(3′-deoxy-β-D-ribofuranosyl)-pyrrolo[2,3-b]pyridine] | 35.2 | > 64 | > 64 | – | – | – | – | > 64 | – | – | –
C[C@@H]1C[C@@H](O)[C@H](n2cc(Br)c3c(N)ncnc32)O1 [FH8492, 4-amino-5-bromo-N7-(3′-5′-dideoxy-β-D-ribofuranosyl)-pyrrolo[2,3-d]pyrimidine] | 33.5 | 20.1 | 10.2 | 12 | – | – | – | – | – | – | –
O=c1[nH]cnc2c1c(Br)cn2[C@@H]1O[C@H](CO)C[C@H]1O [FH8500, 4-oxo-5-bromo-N7-(3′-deoxy-β-D-ribfuranosyl)-pyrrolo[2,3-d]pyrimidine] | 8.09 | 2.26 | > 64 | > 64 | – | – | – | – | – | – | –
COc1ncnc2c1c(Br)cn2[C@@H]1O[C@H](CO)C[C@H]1O [FH8497, 4-methoxy-5-bromo-N7-(3′-deoxy-β-D-ribofuranosyl)-pyrrolo[2,3-d]pyrimidine] | 2.62 | 3.7 | 2.7 | > 64 | – | – | – | – | – | – | –
COC[C@@H]1C[C@@H](O)[C@H](n2cc(Br)c3c(N)ncnc32)O1 [FH10626, 4-amino-5-bromo-N7-(3′-deoxy-5′-O-methyl-β-D-ribofuranosyl)-pyrrolo[2,3-d]pyrimidine] | 32 | 18.7 | 22.7 | 50.4 | – | – | – | – | – | – | –
Cc1ccc(-c2cn([C@@H]3O[C@H](CO)C[C@H]3O)c3ncnc(N)c23)cc1C [FH10653, 4-amino-5-(3,4-dimethylphenyl)-N7-(3′-deoxy-β-D-ribofuranosyl)-pyrrolo[2,3-d]pyrimidine] | 8.81 | 2.17 | 22.3 | 1.37 | – | – | – | – | – | – | –
CCSC[C@@H]1C[C@@H](O)[C@H](n2cc(Br)c3c(N)ncnc32)O1 [FH9590, 4-amino-5-bromo-N7-(3′-deoxy-5′-thio-ethyl-β-D-ribofuranosyl)-pyrrolo[2,3-d]pyrimidine] | 32.9 | 10.6 | 25.8 | 35.7 | – | – | – | – | – | – | –
OC[C@@H]1C[C@@H](O)[C@H](n2ccc3c(Cl)ccnc32)O1 [FH9541, 4-chloro-N1-(3′-deoxy-β-D-ribofuranosyl)-pyrrolo[2,3-b]pyridine] | 31.2 | 7.97 | > 64 | – | – | – | – | > 64 | – | – | –
4-amino-5-bromo-N7-(2′,3′-anhydro-2′,3′-dideoxy-β-D-ribofuranosyl)-pyrrolo[2,3-d]pyrimidine [FH10632] | > 64 | 59.9 | 45.6 | > 64 | – | – | – | – | – | – | –
CSc1ncnc2c1c(Br)cn2[C@@H]1O[C@H](CO)C[C@H]1O [FH8510, 4-thiomethyl-5-bromo-N7-(3′-deoxy-β-D-ribofuranosyl)-pyrrolo[2,3-d]pyrimidine] | 1.68 | 4.34 | 0.29 | 35.8 | – | – | – | – | – | – | –
COc1ccc(-c2cn([C@@H]3O[C@H](CO)C[C@H]3O)c3ncnc(N)c23)cc1Cl [FH10645] | 7.13 | 2.51 | > 64 | 3.3 | – | – | – | – | – | – | –
Nc1ncnc2c1c(-c1ccc(F)c(F)c1)cn2[C@@H]1O[C@H](CO)C[C@H]1O [FH10682, 4-amino-5-(3,4-difluorophenyl)-N7-(3′-deoxy-β-D-ribofuranosyl)-pyrrolo[2,3-d]pyrimidine] | – | – | – | – | – | – | – | – | > 64 | 0.33 | 218
